Data: patent publication US8557839B2, “Fused ring azadecalin glucocorticoid receptor modulators” (Corcept Therapeutics, Inc., priority 2004, dated 2013)

Experiments:
[1] = biological target: T1, mineralocorticoid (MR) receptor (Homo sapiens, UniProt P08235); assay: MR functional assay using T47D/MMTV-5 cells; assay type: cell-based; settings: read-out: inhibition of the MR functional response
T1 construct: containing endogenous mineralocorticoid-(MR) and progesterone (PR) receptors; endogenous in cells; host or cells: T47D/MMTV-5 (human breast carcinoma, stably carrying the pMAMneo-Luc reporter)
T1 sequence (P08235 1-984): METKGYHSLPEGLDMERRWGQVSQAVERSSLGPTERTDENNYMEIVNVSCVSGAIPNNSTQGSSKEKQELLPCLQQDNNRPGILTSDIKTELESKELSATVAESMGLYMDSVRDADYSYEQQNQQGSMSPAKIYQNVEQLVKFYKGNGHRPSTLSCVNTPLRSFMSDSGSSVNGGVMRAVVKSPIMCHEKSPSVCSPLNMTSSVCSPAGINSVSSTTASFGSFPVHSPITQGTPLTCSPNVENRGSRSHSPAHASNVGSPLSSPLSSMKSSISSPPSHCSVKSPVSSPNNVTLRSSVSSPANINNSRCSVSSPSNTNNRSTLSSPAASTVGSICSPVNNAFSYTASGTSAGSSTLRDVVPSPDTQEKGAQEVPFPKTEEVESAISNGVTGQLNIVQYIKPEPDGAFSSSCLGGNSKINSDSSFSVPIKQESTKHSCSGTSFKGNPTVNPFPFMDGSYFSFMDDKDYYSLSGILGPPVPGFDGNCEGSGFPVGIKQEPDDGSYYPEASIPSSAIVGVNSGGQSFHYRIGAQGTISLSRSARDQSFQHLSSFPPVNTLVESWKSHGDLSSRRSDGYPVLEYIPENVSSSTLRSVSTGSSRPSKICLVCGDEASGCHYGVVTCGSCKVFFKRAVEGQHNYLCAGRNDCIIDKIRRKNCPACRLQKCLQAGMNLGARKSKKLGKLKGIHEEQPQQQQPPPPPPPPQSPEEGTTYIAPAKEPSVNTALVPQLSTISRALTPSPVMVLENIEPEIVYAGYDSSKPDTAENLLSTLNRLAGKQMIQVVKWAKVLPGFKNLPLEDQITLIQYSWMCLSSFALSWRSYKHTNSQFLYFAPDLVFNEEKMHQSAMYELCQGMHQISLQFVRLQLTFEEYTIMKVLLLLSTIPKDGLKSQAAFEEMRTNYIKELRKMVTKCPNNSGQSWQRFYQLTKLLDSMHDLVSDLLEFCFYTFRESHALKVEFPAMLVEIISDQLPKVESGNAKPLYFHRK
Method: (§1) As for the SW 1353 cell line, T47D cells was transfected with the same pMAMneo-Luc plasmid, and stable lines selected with geneticin.
(§2) T47D/MMTV-5 cells were distributed in 96-well plates (100 μl) in RPMI1640 medium +10% Charcoal stripped FCS. The cells were incubated for 24 hrs in the CO2-oven. A volume of 100 μl of the compound dilutions in medium +agonist (500 nM aldost; 50 nM progest) were added, and the plates further incubated for another 24 hrs after which the luciferase expression was measured.

[2] = biological target: T2, progesterone (PR) receptor (Homo sapiens, UniProt P06401); assay: PR functional assay using T47D/MMTV-5 cells; assay type: cell-based; settings: read-out: inhibition of the PR agonist response
T2 construct: containing endogenous mineralocorticoid-(MR) and progesterone (PR) receptors; endogenous in cells; host or cells: T47D/MMTV-5 (human breast carcinoma, stably carrying the pMAMneo-Luc reporter)
T2 sequence (P06401 1-933): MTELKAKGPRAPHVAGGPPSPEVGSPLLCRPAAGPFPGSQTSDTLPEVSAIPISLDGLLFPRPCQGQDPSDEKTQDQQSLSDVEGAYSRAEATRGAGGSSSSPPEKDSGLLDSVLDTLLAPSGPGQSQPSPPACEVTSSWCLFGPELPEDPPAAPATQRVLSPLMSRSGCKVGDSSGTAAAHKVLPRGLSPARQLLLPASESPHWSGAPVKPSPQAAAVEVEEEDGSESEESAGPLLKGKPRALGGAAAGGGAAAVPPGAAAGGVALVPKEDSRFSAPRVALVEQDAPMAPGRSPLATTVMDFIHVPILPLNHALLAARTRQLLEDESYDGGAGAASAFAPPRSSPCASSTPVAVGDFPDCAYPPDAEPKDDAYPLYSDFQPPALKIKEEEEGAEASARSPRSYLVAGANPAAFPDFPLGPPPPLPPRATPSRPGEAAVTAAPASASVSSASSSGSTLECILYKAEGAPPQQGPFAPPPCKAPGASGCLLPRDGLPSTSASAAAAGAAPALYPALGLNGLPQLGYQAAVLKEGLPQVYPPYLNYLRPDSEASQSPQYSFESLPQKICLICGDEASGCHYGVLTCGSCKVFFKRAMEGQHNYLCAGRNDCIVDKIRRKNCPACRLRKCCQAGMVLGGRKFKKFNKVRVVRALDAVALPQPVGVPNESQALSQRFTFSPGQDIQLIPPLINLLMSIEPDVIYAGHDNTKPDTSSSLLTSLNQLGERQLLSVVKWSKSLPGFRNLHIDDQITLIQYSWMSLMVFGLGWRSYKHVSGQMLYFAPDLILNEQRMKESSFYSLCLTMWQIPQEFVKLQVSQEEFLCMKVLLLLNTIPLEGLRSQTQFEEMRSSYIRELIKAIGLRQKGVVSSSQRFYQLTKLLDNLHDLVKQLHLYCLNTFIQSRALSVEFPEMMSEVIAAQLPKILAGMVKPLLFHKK
Method: as §1, §2

inhibition at 3 µM [1]: 10% | inhibition at 3 µM [2]: 8%
Compound: CC(C)(C)c1ccc(S(=O)(=O)N2CCC3=Cc4c(cnn4-c4ccc(F)cc4)C[C@]3(C)C2)cc1 [Example 29, (S)-6-(4-tert-Butyl-benzenesulfonyl)-1-(4-fluoro-phenyl)-4a-methyl-4,4a,5,6,7,8-hexahydro-1H-1,2,6-triaza-cyclopenta[b]naphthalene]
